The values that follow come from patent publication US6627651B1, “Cyclic compounds and uses thereof” (Takeda Chemical Industries, Ltd., priority 1999, dated 2003).

The term melting point denotes the temperature, or range, at which the solid turns liquid. As for `CCOCCOc1c(C)cc(Oc2ccc3c(c2)C=C(C(=O)Nc2ccc(CN(C)C4CCOCC4)cc2)CCS3(=O)=O)cc1C` [Compound 126, 7-[4-(2-ethoxyethoxy)-3,5-dimethylphenoxy]-N-[4-[[N-methyl-N-(tetrahydro-2H-pyran-4-yl)amino]methyl]phenyl]-1,1-dioxo-2,3-dihydro-1-benzothiepine-4-carboxamide], the melting point is 111 to 113 °C.

Take `CCCOc1ccc(Oc2ccc3c(c2)C=C(C(=O)Nc2ccc(CN(C)C4CCOCC4)cc2)CCS3(=O)=O)cc1` [Compound 111, N-[4-[[N-methyl-N-(tetrahydropyran-4-yl)amino]methyl]phenyl]-7-(4-propoxyphenoxy)-1,1-dioxo-2,3-dihydro-1-benzothiepine-4-carboxamide]: the melting point was in the range of 139 to 141 °C.

Regarding `Cc1ccc(-c2ccc3nc(C)c(C(=O)N[C@H]4CC[C@H](CN(C)C5CCOCC5)CC4)cc3c2)cc1` [Compound 70, trans-2-methyl-6-(4-methylphenyl)-N-[4-[N-methyl-N-(tetrahydropyran-4-yl)aminomethyl]cyclohexyl]quinoline-3-carboxamide], the melting point was 163 to 165 °C.

As for `CCCOCc1ccccc1Oc1ccc2c(c1)C=C(C(=O)Nc1ccc(CN(C)C3CCOCC3)cc1)CCS2(=O)=O` [Compound 115, N-[4-[[N-methyl-N-(tetrahydropyran-4-yl)amino]methyl]phenyl]-7-(2-propoxymethylphenoxy)-1,1-dioxo-2,3-dihydro-1-benzothiepine-4-carboxamide], the melting point was in the range of 162 to 164 °C.

On to `Cc1ccc(COc2cccc(/C=C/c3ccc(C[N+]4(C)CCCCC4)cc3)c2)cc1.[I-]` [Compound 98, (E)-1-methyl-1-[4-[3-(4-methylbenzyloxy)styryl]benzyl]piperidinium iodide], for which the melting point lay within 189 to 192 °C.

`CN(Cc1ccc(NC(=O)C2=Cc3cc(OCc4cccnc4)ccc3S(=O)(=O)CC2)cc1)C1CCOCC1` [Compound 4, N-[4-[N-methyl-N-(tetrahydropyran-4-yl)aminomethyl]phenyl]-7-(3-pyridylmethoxy)-1,1-dioxo-2,3-dihydro-1-benzothiepine-4-carboxamide] showed a melting point of 225 to 229 °C.

`CCOc1cccc(COc2ccc3c(c2)C=C(C(=O)Nc2ccc(CN(C)C4CCOCC4)cc2)CCS3(=O)=O)c1` [Compound 118, 7-(3-ethoxybenzyloxy)-N-[4-[[N-methyl-N-(tetrahydropyran-4-yl)amino]methyl]phenyl]-1,1-dioxo-2,3-dihydro-1-benzothiepine-4-carboxamide] returned a melting point of 189 to 192 °C.

On to `Cc1ccc(-c2ccc3c(c2)C=C(C(=O)NC2CCN(CC4=CCCCCCCC4)CC2)CCO3)cc1` [Compound 59, N-(1-(cyclononen-1-yl)methylpiperidin-4-yl)-7-(4-methylphenyl)-2,3-dihydro-1-benzooxepine-4-carboxamide], for which the melting point lay in the range of 128 to 130 °C.

In turn, `CN(Cc1ccc(NC(=O)C2=Cc3cc(OCc4ccccc4Cl)ccc3S(=O)(=O)CC2)cc1)C1CCOCC1` [Compound 103, 7-[(2-chlorobenzyl)oxy]-N-[4-[[N-methyl-N-(tetrahydropyran-4-yl)amino]methyl]phenyl]-1,1-dioxo-2,3-dihydro-1-benzothiepine-4-carboxamide] yielded a melting point of 205 to 207 °C.

For `C[N+]1(Cc2ccc(NC(=O)c3cccc(OCc4cccc5ccccc45)c3)cc2)CCCCC1.[I-]` [Compound 89, 1-methyl-1-[4-[3-(1-naphthylmethoxy)benzoylamino]benzyl]piperidinium iodide], the melting point was in the range of 211 to 213 °C.

The molecule `C[N+]1(Cc2ccc(NC(=O)C3CCc4ccc(-c5ccccc5)cc4C3)cc2)CCCCC1.[I-]` (stereo not shown) [Compound 83, 1-[4-(7-phenyl-1,2,3,4-tetrahydronaphthalene-2-carboxamido)benzyl]-1-methylpiperidinium iodide] gave a melting point of 205 to 208 °C.

The molecule `CCCc1ccc(Oc2ccc3c(c2)C=C(C(=O)Nc2ccc(CN(C)C4CCOCC4)cc2)CCS3(=O)=O)cc1` [Compound 113, N-[4-[[N-methyl-N-(tetrahydropyran-4-yl)amino]methyl]phenyl]-7-(4-propylphenoxy)-1,1-dioxo-2,3-dihydro-1-benzothiepine-4-carboxamide] gave a melting point of 147 to 149 °C.

For the molecule `Cc1ccc(-c2ccc3c(c2)C=C(C(=O)N[C@H]2CC[C@H](CN(C)C4CCOCC4)CC2)CO3)cc1` [Compound 67, trans-6-(4-methylphenyl)-N-[4-[N-methyl-N-(tetrahydropyran-4-yl)aminomethyl]cyclohexyl]-2H-1-benzopyran-3-carboxamide], the melting point fell in the range of 141 to 143 °C.

`Cc1ccc(-c2ccc3c(c2)C=C(C(=O)N[C@H]2CC[C@H](CN(C)C4CCOCC4)CC2)CCO3)cc1` [Compound 63, trans-7-(4-methylphenyl)-N-[4-[N-methyl-N-(tetrahydropyran-4-yl)aminomethyl]cyclohexyl]-2,3-dihydro-1-benzooxepine-4-carboxamide] gave a melting point of 144 to 146 °C.

In the case of `Cc1ccc(-c2ccc3c(c2)C=C(C(=O)N[C@H]2CC[C@H](CN(C)C4CCN(C(=O)OC(C)(C)C)CC4)CC2)CCO3)cc1` [Compound 65, trans-N-[4-[N-(1-tert-butoxycarbonylpiperidin-4-yl)-N-methylaminomethyl]cyclohexyl]-7-(4-methylphenyl)-2,3-dihydro-1-benzooxepine-4-carboxamide], the melting point was 146 to 150 °C.

`CN(Cc1ccc(NC(=O)C2CCS(=O)(=O)c3ccc(OCc4ccc(F)cc4)cc3C2)cc1)C1CCOCC1` (stereo not shown) [Compound 3, 7-(4-fluorobenzyloxy)-N-[4-[N-methyl-N-(tetrahydropyran-4-yl)aminomethyl]phenyl]-1,1-dioxo-3,4-dihydro-1-benzothiepine-4-carboxamide] registered a melting point of 232 to 234 °C.

In turn, `Cc1ccc(-c2ccc3c(c2)C=C(C(=O)N2CCC(N)CC2)CCO3)cc1` [Compound 76, 4-amino-1-(7-(4-methylphenyl)-2,3-dihydro-1-benzooxepine-4-carbonyl)piperidine] came in with a melting point of 123 to 127 °C.

On to `CCOc1ccccc1COc1ccc2c(c1)C=C(C(=O)Nc1ccc(CN(C)C3CCOCC3)cc1)CCS2(=O)=O` [Compound 101, 7-[(2-ethoxybenzyl)oxy]-N-[4-[[N-methyl-N-(tetrahydropyran-4-yl)amino]methyl]phenyl]-1,1-dioxo-2,3-dihydro-1-benzothiepine-4-carboxamide], for which the melting point lay within 211 to 214 °C.

As for `Cc1ccc(-c2ccc3c(c2)C=C(C(=O)N[C@H]2CC[C@H](CN(C)C4CCOCC4)CC2)CCC3)cc1` [Compound 64, trans-2-(4-methylphenyl)-N-[4-[N-methyl-N-(tetrahydropyran-4-yl)aminomethyl]cyclohexyl]-6,7-dihydro-5H-benzocycloheptene-8-carboxamide], the melting point was 163 to 165 °C.

The molecule `CCCOCCOc1ccc(COc2ccc3c(c2)C=C(C(=O)Nc2ccc(CN(C)C4CCOCC4)cc2)CCS3(=O)=O)cc1OCC` [Compound 110, 7-[[3-ethoxy-4-(2-propoxyethoxy)benzyl]oxy]-N-[4-[[N-methyl-N-(tetrahydropyran-4-yl)amino]methyl]phenyl]-1,1-dioxo-2,3-dihydro-1-benzothiepine-4-carboxamide] yielded a melting point of 146 to 147 °C.

Turning to `Cc1ccc(-c2ccc3c(c2)C=C(C(=O)NC2CCNCC2)CCO3)cc1` [Compound 54, N-(4-piperidinyl)-7-(4-methylphenyl)-2,3-dihydro-1-benzooxepine-4-carboxamide], the melting point was 183 to 185 °C.

`Cc1ccc(-c2ccc3c(c2)C=C(C(=O)Nc2ccc(C4=NCCN4)cc2)CCO3)cc1` [Compound 92, N-[4-(2-imidazolin-2-yl)phenyl]-7-(4-methylphenyl)-2,3-dihydro-1-benzooxepine-4-carboxamide] showed a melting point of 282 to 283 °C.

Consider `Cc1ccc(-c2ccc3c(c2)C=C(C(=O)NC2CCN(CCC4CCCCC4)CC2)CCO3)cc1` [Compound 60, N-(1-(2-cyclohexylethyl)piperidin-4-yl)-7-(4-methylphenyl)-2,3-dihydro-1-benzooxepine-4-carboxamide], for which the melting point lay in the range of 193 to 196 °C.

For `Cc1ccc(-c2csc(/C=C/C(=O)N[C@H]3CC[C@H](CN(C)C4CCOCC4)CC3)c2)cc1` [Compound 72, (trans, E)-3-[4-(4-methylphenyl)thiophen-2-yl]-N-[4-[N-methyl-N-(tetrahydropyran-4-yl)aminomethyl]cyclohexyl]acrylamide], the melting point lay in the range of 180 to 183 °C.

`Cc1ccc(-c2ccc3c(c2)C=C(C(=O)NC2CCN(CC4=CCCCCCC4)CC2)CCO3)cc1` [Compound 57, N-(1-(cycloocten-1-yl)methylpiperidin-4-yl)-7-(4-methylphenyl)-2,3-dihydro-1-benzooxepine-4-carboxamide]: the melting point was in the range of 148 to 151 °C.

As for `Cc1ccc(COc2cccc(C(=O)Nc3ccc(C[N+]4(C)CCCCC4)cc3)c2)cc1.[I-]` [Compound 88, 1-methyl-1-[4-[3-(4-methylbenzyloxy)benzoylamino]benzyl]piperidinium iodide], the melting point is 210 to 212 °C.

Consider `Cc1ccc(C2=Cc3cc(C(=O)Nc4ccc(C[N+](C)(C)C5CCOCC5)cc4)ccc3OC2)cc1.[I-]` [Compound 28, N,N-dimethyl-N-[4-[[3-(4-methylphenyl)-2H-1-benzopyran-6-carbonyl]amino]benzyl]-4-tetrahydropyranylammonium iodide], for which the melting point is 215 to 218 °C (dec.).

The molecule `Cc1ccc(-c2ccc3c(c2)C=C(N(C)c2ccc(CN(C)C4CCOCC4)cc2)CCO3)cc1` [Compound 34, N-[4-[(N-methyl-N-(tetrahydropyran-4-yl)aminomethyl)]phenyl]-N-[7-(4-methylphenyl)-2,3-dihydro-1-benzooxepin-4-yl]methylamine] came in with a melting point of 158 to 160 °C.
